Test results reported in article PMC7329864, “Role of water in cyclooxygenase catalysis and design of anti-inflammatory agents targeting two sites of the enzyme” (Scientific Reports, 2020).
Where two headings read alike, the source gives them in different places.

Experiments:
[1] = In-vivo pharmacokinetic studies
Procedure: (§1) Acute toxicity studies of 1 were carried out at 3 dose levels of 50 mg Kg^−1, 300 mg Kg^−1 and 2000 mg Kg^−1 by periodic monitoring for the first 24 h and daily monitoring for 14 days[56]. […] A few jumping movements were also observed. However, all these behaviours subsided after 60 min. […] Therefore, complying with the design and the results of in vitro studies, the in vivo experiments were gestured with the emergence of a new category of anti-inflammatory agents.
In-vivo Pharmacokinetic studies were performed as per the previously reported protocol.

COX-2 = target: T1, COX-2 (Homo sapiens, UniProt P35354); assay: UV-Vis and fluorescence studies of interaction with COX-2; type: binding
T1 sequence (P35354 18-604): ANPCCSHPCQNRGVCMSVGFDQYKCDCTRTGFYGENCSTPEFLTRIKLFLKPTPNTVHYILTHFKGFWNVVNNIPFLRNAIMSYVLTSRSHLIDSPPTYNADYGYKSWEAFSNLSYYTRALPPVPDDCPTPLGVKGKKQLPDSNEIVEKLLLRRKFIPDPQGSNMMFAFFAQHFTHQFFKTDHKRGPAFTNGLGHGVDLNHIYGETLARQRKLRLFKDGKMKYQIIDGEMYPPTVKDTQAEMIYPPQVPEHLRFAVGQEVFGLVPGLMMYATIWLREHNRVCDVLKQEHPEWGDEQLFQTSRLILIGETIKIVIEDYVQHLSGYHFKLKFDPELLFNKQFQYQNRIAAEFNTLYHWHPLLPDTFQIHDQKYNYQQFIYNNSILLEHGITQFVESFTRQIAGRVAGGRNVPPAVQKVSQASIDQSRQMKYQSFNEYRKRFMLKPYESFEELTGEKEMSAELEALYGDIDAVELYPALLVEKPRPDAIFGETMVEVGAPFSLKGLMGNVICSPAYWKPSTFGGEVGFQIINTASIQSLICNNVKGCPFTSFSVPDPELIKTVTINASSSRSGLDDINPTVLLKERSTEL
From the text: In order to support in-silico experiments, the interactions of 1, 13d and 15d with COX-2 were checked with UV–vis and fluorescence spectral techniques. […] The appearance of level-off in the visible region (500–700 nm) was attributed to the Mie scattering due to the formation of aggregates. […] Corroborating the results of molecular modelling studies, the changes in the UV–Vis spectra as well as the fluorescence spectrum of the compound on addition of COX-2 probably occurred due to the HOMO–LUMO interactions between 1 and the enzyme (Figure S26). The linear Stern–Volmer plot of decrease in fluorescence intensity at 567 nm on increasing COX-2 concentration gave Stern–Volmer constant Ksv 3.30 × 10^4 M^-1. The detection limit of the compound for COX-2 was 0.02 nM (Figure S26C,D).
In order to support in-silico experiments, the interactions of 1, 13d and 15d with COX-2 were checked with UV-vis and fluorescence spectral techniques. […] The appearance of level-off in the visible region (500-700 nm) was attributed to the Mie scattering due to the formation of aggregates. […] Corroborating the results of molecular modelling studies, the changes in the UV-Vis spectra as well as the fluorescence spectrum of the compound on addition of COX-2 probably occurred due to the HOMO-LUMO interactions between 1 and the enzyme (Figure S27). The linear Stern-Volmer plot of decrease in fluorescence intensity at 567 nm on increasing COX-2 concentration gave Stern-Volmer constant Ksv 3.30x10^4 M^-1. The detection limit of the compound for COX-2 was 0.02 nM (Figure 27C, 27D).

Acute toxicity studies = type: in vivo
Procedure: as §1
Acute Toxicity Studies[56]. Four groups of animals with three animals per group were taken. The first group was administered the vehicle and served as the control group, the second, third and the fourth groups were treated with 1 at doses of 50 mg Kg^−1, 300 mg Kg^−1 and 2000 mg Kg^−1, respectively. All the treatments were administered after 4 h of fasting. Thereafter, the animals were observed continuously for the first four hours and periodically for 24 h. After 14 days, one animal each in control and highest dose of 1 (2000 mg Kg^−1) was sacrificed and histological studies were conducted using H and E staining.
[56] OECD Guideline for testing of chemicals, 2001. Guideline 423: acute oral toxicity- acute toxic class method, 2001.

wt COX-2 = target: T2, wt COX-2 (Homo sapiens, UniProt P35354); assay: COX inhibitory enzyme immunoassay (COX-2); type: biochemical
T2 construct: purchased Cayman Chemical Co. item no; 560131
T2 sequence (P35354 18-604): T1 sequence (P35354 18-604)
Procedure: All the compounds of Fig. 9 were screened for COX-1/2 inhibitory activity in triplicate at 10^–4–10^–8 M concentration by performing enzyme immunoassays. The activity of the compounds was quantified in terms of amount of prostaglandins produced by the enzymes in the presence of different concentrations of the compound.
For studying the COX-1, COX-2 inhibitory activities of the compounds, various reagents were prepared as per the protocol of the assays. The compounds were screened in triplicate at 10^–4–10^–8 M concentration using the procedure as described in the previous report.

## O=C1NC(=O)C(=Cc2cn(CCCCCCn3c4ccccc4c(=O)c4ccccc43)c3ccccc23)C(=O)N1 [Compound 1]
[1]; Animal 1
  Cmax: 3150 nM
  Tmax: 0.5 h
[1]; Animal 1, read-out: AUC(0–1440 min) (converted)
  AUC(0-t): 21.4 µM·h
[1]; Animal 1, read-out: T1/2
  half-life: 11.2 h
[1]; Animal 2
  Cmax: 2860 nM
  Tmax: 0.25 h
[1]; Animal 2, read-out: AUC(0–1440 min) (converted)
  AUC(0-t): 19.7 µM·h
[1]; Animal 2, read-out: T1/2
  half-life: 6.96 h
[1]; Animal 3
  Cmax: 2600 nM
  Tmax: 0.5 h
[1]; Animal 3, read-out: AUC(0–1440 min) (converted)
  AUC(0-t): 20.2 µM·h
[1]; Animal 3, read-out: T1/2
  half-life: 8.68 h
[1]; Mean
  Tmax: 0.417 h
[1]; Mean, read-out: AUC(0–1440 min) (converted)
  AUC(0-t): 20.4 µM·h
[1]; Mean, read-out: T1/2
  half-life: 8.95 h
[1]; read-out: half life (T1/2) (converted)
  half-life: ~9 h
COX-2; addition of COX-2 in Tris–HCl buffer pH 7.25 to solution of compound
  decrease in fluorescence intensity (quenching) in the presence of COX-2: significant quenching
COX-2; fluorescence intensity at 567 nm vs [COX-2], Tris–HCl buffer pH 7.25
  detection limit of the compound for COX-2: 0.02 nM
COX-2; fluorescence quenching at 567 nm by COX-2, 0.5 µM compound, Tris–HCl buffer pH 7.25
  Stern–Volmer constant Ksv: 33000 M⁻¹
Acute toxicity studies; 2000 mg Kg^−1, after 14 days, H and E staining, a few areas of congestion in myocardium and kidney
  histological examination of liver, kidney and myocardium: grossly unremarkable
Acute toxicity studies; 50, 300 and 2000 mg Kg^−1, oral, 14 days of observation
  mortality in acute toxicity study: No mortality
Acute toxicity studies; first 60 min after oral administration, subsided after 60 min
  behavioural observations in acute toxicity study: excessive licking, sniffing, grooming and restless movements
Wt COX-2; enzyme immunoassay, screened at 10^–4–10^–8 M, average of 3 experiments, SD ± 0.5 µM
  IC50: 60 nM
Wt COX-2; selectivity index COX-1/COX-2
  SI (IC50(COX-1)/IC50 (COX-2): 1,000
